This note sets out measurements from patent EP3409266A1, “ACTIVE INGREDIENT COMBINATIONS OF GLYCERYL GLUCOSIDES AND ONE OR MORE MILD SURFACTANTS” (Beiersdorf AG, priority 2010, dated 2012).

In data set [1] the test system is Kalbserythrozyten. As to the kind of experiment: RBC test: haemolysis (release of haemoglobin, H50). The class given is cell-based, Kalb. The conditions noted are these: 10 min. The text has this: (§1) Der Standard RBC-Test dient zur Abschätzung von in-vivo Augenschleimhautreizpotentialen von Tensiden und tensidhaltigen Produkten. Das Verfahren beruht auf der Tatsache, dass Tenside stark mit Zellmembranen und Proteinen interagieren. Beide Effekte werden photometrisch durch Analyse des natürlichen Blutfarbstoffs Oxyhämoglobin ([…]) bestimmt. Im Gegensatz zu anderen zellbasierten Systemen ist der RBC-Test in der Lage zwischen Schädigungen der Zellmembran (Hämolyse) und Proteindenaturierung (Denaturierungsindex) zu differenzieren.
Ein definiertes Aliquot isolierter Kalbserythrozyten wird mit einer Reihe steigender Konzentrationen des zu untersuchenden Musters (Stammlösung für Rohstoffe 0,1 Gew.-% Aktivgehalt der waschaktiven Substanz in PBS; Stammlösung für Fertigprodukte 1:100 w/v in PBS) für 10 Minuten unter Schütteln bei RT inkubiert. PBS ist ein üblicher Standard-PhosphatPuffer (pH 7,4) mit folgender Zusammensetzung:
Die Inkubationsperiode wird durch schnelle Hochgeschwindigkeitszentrifugation beendet. Nach Zentrifugation werden die gewonnenen Überstände photometrisch auf ihren Gehalt an freigesetztem Hämoglobin (HbO2) bei 530 nm analysiert. Daraus wird der relative Hämolysegrad berechnet und die Konzentrations-Response-Kurve mit dem H50-Wert [µl/ml] als Kenngröße bestimmt. Dieser gibt die Konzentration des Prüfmusters an, bei der 50% des Hämoglobins freigesetzt werden. Je höher der Wert, desto verträglicher ist das untersuchte Muster.

The next data set addresses T1, HbO2 (Bos taurus, UniProt P01966+P02070).
T1 construct: wird im Vergleich zum nativen HbO2 gemessen; endogenous in cells; host or cells: isolated calf erythrocytes (Kalbserythrozyten)
As to the kind of experiment: RBC test: HbO2 denaturation (denaturation index DI). The class given is cell-based. The conditions noted are these: raw material 0,1 Gew.-% active content in PBS, 10 min, RT; 100% standard Natriumlaurylsulfat; lower = better tolerated.
Source text: as §1
Ein definiertes Aliquot isolierter Kalbserythrozyten wird mit einer fixen Konzentration des Prüfmusters (Konzentration für Rohstoffe 0,1 Gew.-% Aktivgehalt der waschaktiven Substanz in PBS; Konzentration für Fertigprodukte 1% w/v in PBS) für 10 Minuten unter Schütteln bei RT inkubiert und dann zentrifugiert. Die Änderung der spektralen Absorption bei 575 nm und 540 nm wird im Vergleich zum nativen HbO2 gemessen. Aus dem Verhältnis der Absorptionswerte zueinander wird der Denaturierungsindex DI [%] berechnet. Als 100%-Standard dient Natriumlaurylsulfat (0,1% Aktivgehalt).
Je geringer der Wert, desto verträglicher ist das untersuchte Muster.

The subject of data set [2] is Kalbserythrozyten. It is filed as cell-based, Kalb.
Source text: Die Milde eines Tensides oder Tensidsystems lässt sich durch die Bestimmung der Quotienten aus Hämolysewert und Denaturierungsindex charakterisieren. Der Quotient L/D repräsentiert das Verhältnis von Hämolysewert (L) zu Denaturierungsindex (D) und wird durch den Standard RBC-Test bestimmt.
as §1
Der Quotient (L/D-Wert) stellt das Verhältnis der Kenngrößen von Hämolyse (H50) und Denaturierung (DI) dar und wird zur Charakterisierung und Klassifizierung der untersuchten Prüfmuster verwendet.
Tenside oder Tensidmischungen werden erfindungsgemäß als mild angesehen, wenn der L/D-Wert mindestens 1 beträgt. Zum Vergleich dazu hat das häufig in Reinigungsprodukten eingesetzte Natriumlaurylethersulfat einen L/D-Wert von ca. 0,3 und wird als reizend klassifiziert. Sofern in einer Tensidmischung Natriumlaurylethersulfat eingesetzt wird, hat die resultierende Tensidmischung erfindungsgemäß einen L/D-Wert von mindestens 1.

T1 sequence (P01966 2-142 limits assumed): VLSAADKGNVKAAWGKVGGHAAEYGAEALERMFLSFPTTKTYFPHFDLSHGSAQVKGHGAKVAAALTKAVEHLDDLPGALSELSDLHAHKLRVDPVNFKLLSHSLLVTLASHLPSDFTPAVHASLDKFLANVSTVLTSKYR
T1 sequence (P02070 whole entry): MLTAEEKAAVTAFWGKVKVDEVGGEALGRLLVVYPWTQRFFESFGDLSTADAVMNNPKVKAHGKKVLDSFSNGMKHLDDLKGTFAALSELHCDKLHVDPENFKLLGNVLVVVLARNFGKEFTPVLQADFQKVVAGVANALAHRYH

With Decylglucosid, the H50 in the data set on Kalbserythrozyten [1] (bovine, pH 7.4) is given as 127,7 µl/ml. The DI on HbO2 is 3,9%. The L/D with Kalbserythrozyten [2] is on record as 33,4.
Dinatriumlaurylethersulfosuccinat: the H50 with Kalbserythrozyten [1] (bovine, pH 7.4) is reported as 167,7 µl/ml. At HbO2, the DI is on record as 40,4%. In addition, the L/D with Kalbserythrozyten [2] is 4,15.
Taken in the same sequence, the figures for “Dinatrium PEG-5 Laurylcitratsulfosuccinat” were 645 µl/ml, 5,5% and 117.
With `CCCCCCCCCCCC(=O)N(C)CC(=O)O` [Natriumlauroylsarcosinat], the H50 in the data set with Kalbserythrozyten [1] (raw material, stock 0,1 Gew.-% active content in PBS, RT, higher = better tolerated) was found to be 458 µl/ml. For the same compound, at HbO2, the DI is listed as 58,4%. Besides, the L/D in the data set with Kalbserythrozyten [2] was 7,84.
In the case of Dinatriumcocoylglutamat, in the data set with Kalbserythrozyten [1] (bovine, pH 7.4), the H50 is on record as 136,6 µl/ml. Besides, the DI on HbO2 is recorded as 77,9%. Also, the L/D in the data set with Kalbserythrozyten [2] is reported as 1,75.
Taken in the same sequence, the figures for Natriumcocoamphoacetat were 26 µl/ml, 1% and 26.
Taken in the same sequence, the figures for PEG-7 Glycerylcocoat were 115,2 µl/ml, 4,9% and 23,5.
Regarding Cocamidopropylbetain, the H50 with Kalbserythrozyten [1] (bovine, pH 7.4) is given as 56,1 µl/ml. For the same compound, the DI on HbO2 was 2,6%. Further, the L/D with Kalbserythrozyten [2] is 21,65.
The corresponding values for Laurylglucosid are 84,1 µl/ml, 3,2% and 20,4.
For the compound “Natriumlaurylethersulfat [reference compound]”, in the data set on Kalbserythrozyten [2], the “Klassifizierung nach L/D-Wert” value is recorded as “reizend” and the L/D entry is “ca. 0,3”.
On to `CCCCCCCCCCCC(=O)NC(CCC(=O)O)C(=O)O` (centres unmarked) [Natriumlauroylglutamat], for which the H50 in the data set on Kalbserythrozyten [1] (bovine, pH 7.4) is 312,3 µl/ml. Also, at HbO2, the DI is recorded as 10,5%. The L/D with Kalbserythrozyten [2] was 29,9.
Taken in the same sequence, the figures for Dinatriumcocoamphodiacetat were 36,4 µl/ml, 1,5% and 24.
